Our source for the elastase inhibitory effects values is patent US8491946B2, “Elastase inhibitor” (Shiseido Company, Ltd., priority 2010, dated 2013).

The assay has as its target T1, Human leukocyte-derived elastase (Homo sapiens, UniProt P08246).
T1 construct: purchased Elastin Product Co., Inc. CK828; host or cells: human leukocytes (leukocyte-derived)
T1 sequence (P08246 30-247 limits assumed): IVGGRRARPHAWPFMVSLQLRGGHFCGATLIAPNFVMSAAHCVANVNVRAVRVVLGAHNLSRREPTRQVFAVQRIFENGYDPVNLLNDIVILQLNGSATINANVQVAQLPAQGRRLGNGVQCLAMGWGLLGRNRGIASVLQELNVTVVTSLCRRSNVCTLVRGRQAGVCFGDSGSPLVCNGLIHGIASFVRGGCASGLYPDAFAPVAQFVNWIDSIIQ
The assay can be described thus: elastase inhibition assay with fluorogenic substrate. It is filed as biochemical. As to conditions: FIG. 1; drug alone or raspberry extract combined with hydroxyproline; 60 minutes at 37° C. The protocol:
A solution containing 0.1 M HEPES and 0.5 M NaCl (pH 7.5) was used as a reaction buffer. Oxysuccinyl-(Ala)2-Pro-Val-MCA (Peptide Institute Cat. No. 3153-v) was used for the elastase substrate and dissolved in DMSO to a concentration of 80 mM followed by diluting to 0.16 mM with the reaction buffer. Human leukocyte-derived elastase (Elastin Product Co., Inc. Cat No. CK828) was diluted to 5 μg/mL with the reaction buffer.
25 μL aliquots of the 0.16 mM elastase substrate were dispensed into the wells of a 96-well plate followed by the addition of 50 μL of each drug. Next, 25 μL of ice-cooled 5 μg/mL elastase were added and incubated for 60 minutes at 37° C. followed by measuring fluorescence at 460 nm at an exciting wavelength of 369 nm. Raspberry extract BG manufactured by Maruzen Pharmaceuticals was used for the raspberry extract, L-hydroxyproline manufactured by Kyowa Hakko was used for the hydroxyproline, and Biodyne EMPP™ manufactured by Arch Personal Care Products L.P. was used for the yeast extract. Raspberry extract BG is a 1,3-butyleneglycol (50% aqueous solution) extract of raspberry fruit.

“Also recorded” adds a separate entry of the source.

Consider `O=C(O)[C@@H]1C[C@@H](O)CN1` [hydroxyproline, L-hydroxyproline], for which the elastase inhibitory effects entry is listed as “elastase inhibitory effects were not demonstrated; also recorded: does not demonstrate elastase inhibitory effects alone”.
